In one experiment the target is T1, recombinant His-CHK1 (Homo sapiens, UniProt O14757).
T1 construct: His-CHK1, In House Lot P976, MW ˜30 KDa, stored at −80 °C; fused on or other part: His tag
T1 sequence (O14757 1-265 limits assumed): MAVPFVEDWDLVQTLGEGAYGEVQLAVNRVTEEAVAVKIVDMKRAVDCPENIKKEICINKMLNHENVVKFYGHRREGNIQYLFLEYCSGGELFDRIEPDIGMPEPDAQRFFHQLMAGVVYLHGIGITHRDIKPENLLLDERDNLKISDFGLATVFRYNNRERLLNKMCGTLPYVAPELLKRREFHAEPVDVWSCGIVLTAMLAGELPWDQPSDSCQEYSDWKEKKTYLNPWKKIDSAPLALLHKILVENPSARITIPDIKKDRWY
The experiment can be described thus: CHK1 SPA Assay. The settings on record: read-out: CHK-1 IC50. Type of experiment: biochemical. The procedure: An in vitro assay was developed that utilizes recombinant His-CHK1 expressed in the baculovirus expression system as an enzyme source and a biotinylated peptide based on CDC25C as substrate (biotin-[…]).
1) CDC25C Ser 216 C-term Biotinylated peptide substrate (25 mg), stored at −20 °C, Custom Synthesis by Research Genetics: biotin-[…] 2595.4 MW
2) His-CHK1 In House lot P976, 235 ug/mL, stored at −80 °C.
1) Kinase Buffer: 50 mM Tris pH 8.0; 10 mM MgCl2; 1 mM DTT
2) His-CHK1, In House Lot P976, MW ˜30 KDa, stored at −80 °C. […] For 1 plate (100 r×n): dilute 8 μL of 235 μg/mL (7.83 uM) stock in 2 mL Kinase Buffer. This makes a 31 nM mixture. Add 20 μL/well. This makes a final reaction concentration of 6 nM.
3) CDC25C Biotinylated peptide.
Dilute CDC25C to 1 mg/mL (385 uM) stock and store at −20° C. For 1 plate (100 r×n): dilute 10 1L of 1 mg/mL peptide stock in 2 ml Kinase Buffer. This gives a 1.925 μM mix. Add 20 1L/r×n. This makes a final reaction concentration of 385 nM.
For 1 plate (100 r×n): dilute 10 μL of 1 mM ATP (cold) stock and 2 uL fresh P33-ATP (20 μCi) in 5 ml Kinase Buffer. This gives a 2 μM ATP (cold) solution; add 50 μl/well to start the reaction. Final volume is 100 μl/r×n so the final reaction concentrations will be 1 μM ATP (cold) and 0.2 uCi/r×n.
For 1 plate add: To 10 mL Wash Buffer 2 (2M NaCl 1% H3PO4): 1 mL SPA bead slurry (50 mg); Add 100 μL/well
6) Wash buffer 1: 2 M NaCl
7) Wash buffer 2: 2 M NaCl, 1% H3PO4
Dispense 10 μl/r×n to appropriate wells. Add 10 μL 10% DMSO to positive (CHK1+CDC25C+ATP) and negative (CHK1+ATP only) control wells. 2) Thaw enzyme on ice—dilute enzyme to proper concentration in kinase buffer (see Reaction Mixtures) and dispense 20 μl to each well. 3) Thaw the Biotinylated substrate on ice and dilute in kinase buffer (see Reaction Mixtures). Add 20 μL/well except to negative control wells. Instead, add 20 uL Kinase Buffer to these wells. 4) Dilute ATP (cold) and P33-ATP in kinase buffer (see Reaction Mixtures). Add 50 μL/well to start the reaction. 5) Allow the reaction to run for 2 hours at room temperature. 6) Stop reaction by adding 100 uL of the SPA beads/stop solution (see Reaction Mixtures) and leave to incubate for 15 minutes before harvest 7) Place a blank Packard GF/B filter plate into the vacuum filter device (Packard plate harvester) and aspirate […] water through to wet the system. 8) Take out the blank and put in the Packard GF/B filter plate. 9) Aspirate the reaction through the filter plate. 10) Wash: 200 ml each wash; 1× with 2M NaCl; 1× with 2M NaCl/1% H3PO4 11) Allow filter plate to dry 15 min. 12) Put TopSeal-A adhesive on top of filter plate. 13) Run filter plate in Top Count
Settings: • Data mode: CPM • Radio nuclide: Manual SPA:P33 • Scintillator: Liq/plast • Energy Range: Low
(§1) IC50 DETERMINATIONS: Dose-response curves were plotted from inhibition data generated, each in duplicate, from 8 point serial dilutions of inhibitory compounds. Concentration of compound was plotted against % kinase activity, calculated by CPM of treated samples divided by CPM of untreated samples. To generate IC50 values, the dose-response curves were then fitted to a standard sigmoidal curve and IC50 values were derived by nonlinear regression analysis.

The next experiment deals with T2, Cyclin E/CDK2 (Homo sapiens, UniProt P24941).
T2 construct: made in house; host or cells: SF9 cells (baculovirus co-infection)
Briefly: CDK2 Assay (Cyclin E/CDK2 in vitro kinase assay). Type of experiment: biochemical. The settings on record: read-out: CDK2 IC50.
Text: BACULOVIRUS CONSTRUCTIONS: Cyclin E was cloned into pVL1393 (Pharmingen, La Jolla, Calif.) by PCR, with the addition of 5 histidine residues at the amino-terminal end to allow purification on nickel resin. The expressed protein was approximately 45 kDa. CDK2 was cloned into pVL1393 by PCR, with the addition of a haemaglutinin epitope tag at the carboxy-terminal end (YDVPDYAS). The expressed protein was approximately 34 kDa in size.
ENZYME PRODUCTION: Recombinant baculoviruses expressing cyclin E and CDK2 were co-infected into SF9 cells at an equal multiplicity of infection (MOI=5), for 48 hrs. Cells were harvested by centrifugation at 1000 RPM for 10 minutes, then pellets lysed on ice for 30 minutes in five times the pellet volume of lysis buffer containing 50 mM Tris pH 8.0, 1 50 mM NaCl, 1% NP40, 1 mM DTT and protease inhibitors (Roche Diagnostics GmbH, Mannheim, Germany). Lysates were spun down at 15000 RPM for 10 minutes and the supernatant retained. 5 ml of nickel beads (for one liter of SF9 cells) were washed three times in lysis buffer (Qiagen GmbH, Germany). Imidazole was added to the baculovirus supernatant to a final concentration of 20 mM, then incubated with the nickel beads for 45 minutes at 4° C. Proteins were eluted with lysis buffer containing 250 mM imidazole. Eluate was dialyzed overnight in 2 liters of kinase buffer containing 50 mM Tris pH 8.0, 1 mM DTT, 10 mM MgCl2, 100 uM sodium orthovanadate and 20% glycerol. Enzyme was stored in aliquots at −70° C.
IN VITRO KINASE ASSAY: Cyclin E/CDK2 kinase assays were performed in low protein binding 96-well plates (Corning Inc, Corning, N.Y.). Enzyme was diluted to a final concentration of 50 μg/ml in kinase buffer containing 50 mM Tris pH 8.0, 10 mM MgCl2, 1 mM DTT, and 0.1 mM sodium orthovanadate. The substrate used in these reactions was a biotinylated peptide derived from Histone H1 (from Amersham, UK). The substrate was thawed on ice and diluted to 2 μM in kinase buffer. Compounds were diluted in 10% DMSO to desirable concentrations. For each kinase reaction, 20 μl of the 50 µg/ml enzyme solution (1 μg of enzyme) and 20 μl of the 2 μM substrate solution were mixed, then combined with 10 μl of diluted compound in each well for testing. The kinase reaction was started by addition of 50 μl of 2 μM ATP and 0.1 μCi of 33P-ATP (from Amersham, UK). The reaction was allowed to run for 1 hour at room temperature. The reaction was stopped by adding 200 μl of stop buffer containing 0.1% Triton X-100, 1 mM ATP, 5 mM EDTA, and 5 mg/ml streptavidine coated SPA beads (from Amersham, UK) for 15 minutes. The SPA beads were then captured onto a 96-well GF/B filter plate (Packard/Perkin Elmer Life Sciences) using a Filtermate universal harvester (Packard/Perkin Elmer Life Sciences.). Non-specific signals were eliminated by washing the beads twice with 2M NaCl then twice with 2 M NaCl with 1% phosphoric acid. The radioactive signal was then measured using a TopCount 96 well liquid scintillation counter (from Packard/Perkin Elmer Life Sciences).
as §1

Structures are written as SMILES.

By IC50 is commonly meant the concentration that gives 50% inhibition.

Turning to `Cc1cc(Nc2nc(C3=CCCNC3)cn3c(-c4cnn(C)c4)cnc23)sc1S(=O)(=O)NCC1CC1`, the IC50 was 8 nM on recombinant His-CHK1 and 2140 nM at Cyclin E/CDK2.

With `Cc1cc(Nc2nc(C3=CCCNC3)cn3c(-c4cnn(C)c4)cnc23)sc1S(=O)(=O)C(C)C`, the figures for the IC50 on recombinant His-CHK1 and at Cyclin E/CDK2 were 5 nM and 4790 nM, respectively.

On to `Cc1cc(Nc2nc(C3=CCCNC3)cn3c(-c4cnn(C)c4)cnc23)sc1S(C)(=O)=O`, for which the values for the IC50 at recombinant His-CHK1 and on Cyclin E/CDK2 were 8 nM and 11600 nM, respectively.

In the case of `Cc1cc(Nc2nc(C3=CCCNC3)cn3c(-c4cnn(C)c4)cnc23)sc1S(=O)(=O)NCCO`, the figures for the IC50 on recombinant His-CHK1 and on Cyclin E/CDK2 were 6 nM and 4680 nM, respectively.

For the compound `Cc1cc(Nc2nc(C3=CCCNC3)cn3c(-c4cnn(C)c4)cnc23)sc1-c1cnn(C)c1`, the figures for the IC50 at recombinant His-CHK1 and on Cyclin E/CDK2 were 19 nM and 4590 nM, respectively.

For the compound `Cc1cc(Nc2nc(CC3CCNC3)cn3c(-c4cnn(C)c4)cnc23)sn1` (centres unmarked), the figures for the concentration for half-maximal inhibition (IC50) on recombinant His-CHK1 and on Cyclin E/CDK2 were 7 nM and 607 nM, respectively.

Turning to `Cc1cc(Nc2nc(CC3CCNC3)cn3c(-c4cnn(C)c4)cnc23)sc1S(=O)(=O)N(C)C` (centres unmarked), the IC50 at recombinant His-CHK1 worked out at 8 nM; at Cyclin E/CDK2, 983 nM.

For the compound `Cc1ncc(Nc2nc(C3=CCCNC3)cn3c(-c4cnn(C)c4)cnc23)s1`, the results for the IC50 on recombinant His-CHK1 and on Cyclin E/CDK2 were 8 nM and 4630 nM, respectively.

As to `Cc1cc(Nc2nc(C3=CCCNC3)cn3c(-c4cnn(C)c4)cnc23)sc1S(=O)(=O)N(C)C1CC1`, the IC50 at recombinant His-CHK1 came to 18 nM; at Cyclin E/CDK2, 13100 nM.

With `Cn1cc(-c2cnc3c(Nc4ccc(-n5ccnc5)cc4)nc(C4=CCCNC4)cn23)cn1` [drawing 1440], the IC50 is 97 nM on recombinant His-CHK1 and 12500 nM on Cyclin E/CDK2.

On to `Cn1cc(-c2cnc3c(Nc4ccc(-n5ccnc5)cc4)nc(C4=CCCNC4)cn23)cn1` [drawing 1445], for which the results for the IC50 at recombinant His-CHK1 and at Cyclin E/CDK2 were 97 nM and 12500 nM, respectively.

With `Cc1cc(Nc2nc(C3=CCCNC3)cn3c(-c4cnn(C)c4)cnc23)sc1S(=O)(=O)NC1CC1` [drawing 1469], the IC50 on recombinant His-CHK1 amounted to 3 nM; on Cyclin E/CDK2, 1580 nM.

For `Cc1cc(Nc2nc(C3=CCCNC3)cn3c(-c4cnn(C)c4)cnc23)sc1S(=O)(=O)NC1CC1` [drawing 1473], the IC50 was 7 nM on recombinant His-CHK1 and 3210 nM at Cyclin E/CDK2.

For the origin of these results see patent US20070105864A1, “Methods for inhibiting protein kinases” (Schering Corporation, priority 2005, published 2007).
